One assay relates to caspase-8. Kind of assay: Caspase-8 level assay. The assay is classed as cell-based, human. To be noted: MCF-7 cells; for Caspase-8 Fold Change: versus untreated control. As to the method: (§1) Additionally, the effects of compounds 12 and 17 on the levels of caspase-8, Bax, and Bacl-2 in the MCF-7 cancer cell line and staurosporine as a control were examined. […]
The solution in the wells should change from blue to yellow. Read the absorbance of each well at 450 nm having blanked the plate reader against a chromogen blank composed of 100 μl each of Stabilized Chromogen and Stop Solution. Read the plate within 2 hours after adding the Stop Solution. Use a curve fitting software to generate the standard curve. A four-parameter algorithm provides the best standard curve fit. Read the concentrations for unknown samples and controls from the standard curve. Multiply value(s) obtained for sample(s) by the appropriate dilution factor to correct for the dilution in step 3. Samples producing signals greater than that of the highest standard should be diluted in Standard Diluent Buffer and reanalyzed.
4.2.4. Caspase-8 activation assay
Cells were obtained from American Type Culture Collection, cells were grown in RPMI 1640 containing 10% fetal bovine serum at 37°C, stimulated with the compounds to be tested for caspase8, and lysed with Cell Extraction Buffer. This lysate was diluted in Standard Diluent Buffer over the range of the assay and measured for human active caspase-8 content. (Cells are Plated in a density of 1.2 – 1.8 × 10,000 cells/well in a volume of 100µl complete growth medium + 100 ul of the tested compound per well in a 96-well plate for 24 hours before the enzyme assay for Tubulin.). The absorbance of each microwell was read on a spectro-photometer at 450 nm. A standard curve is prepared from 7human Caspase-8 standard dilutions and human Caspase-8 concentration determined. […]

The next assay has as its system Bcl-2. In words: Bcl-2 level assay. The assay is classed as cell-based, human. To be noted: MCF-7 cells; for Bcl-2 Fold Reduction: versus untreated control. How it is done:
as §1
4.2.6. Bcl-2inhibition assay
Mix all reagents thoroughly without foaming before use. Wash the microwells twice with approximately 300 μL Wash Buffer per well with thorough aspiration of microwell contents between washes. Take caution not to scratch the surface of the microwells. After the last wash, empty the wells and tap microwell strips on absorbent pad or paper towel to remove excess Wash Buffer. Use the microwell strips immediately after washing or place upside down on a wet absorbent paper for not longer than 15 minutes. […] Add 100 μL of Sample […]
Diluent in duplicate to all standard wells and to the blank wells. Prepare standard (1:2 dilution) in duplicate ranging from 32 ng/mL to 0.5 ng/mL. Add 100 μL of Sample Diluent, in duplicate, to the blank wells. Add 80 μL of Sample Diluent, in duplicate, to the sample wells. Add 20 μL of each Sample, in duplicate, to the designated wells. Add 50 μL of diluted biotin-conjugate to all wells, including the blank wells. Cover with a plate cover and incubate at room temperature, on a microplate shaker at 100 rpm if available, for 2 hours. Remove plate cover and empty the wells.
Wash microwell strips 3 times as described in step 2. Add 100 μL of diluted Streptavidin-HRP to all wells, including the blank wells. Cover with a plate cover and incubate at room temperature, on a microplate shaker at 100 rpm if available, for 1 hour. Remove plate cover and empty the wells.
Wash microwell strips 3 times as described in step 2. Proceed to the next step. Pipette 100 μl of mixed TMB Substrate Solution to all wells, including the blanks. Incubate the microwell strips at room temperature (18° to 25°C) for about 15 minutes, if available on a rotator set at 100 rpm.
Avoid direct exposure to intense light. The point, at which the substrate reaction is stopped, is often determined by the ELISA reader. Many ELISA readers record absorbance only up to 2.0
O.D. Therefore, the color development within individual microwells must be watched by the person running the assay and the substrate reaction stopped before positive wells are no longer properly detectable. Stop the enzyme reaction by quickly pipetting 100 μL of Stop Solution into each well, including the blank wells. It is important that the Stop Solution is spread quickly and uniformly throughout the microwells to completely inactivate the enzyme. Results must be read immediately after the Stop Solution is added or within one hour if the microwell strips are stored at 2 - 8°C in the dark. Read absorbance of each microwell on a spectrophotometer using 450 nm as the primary wavelength.
4.3. Statistical analysis
Computerized Prism 5 program was used to statistically analyzed data using one-way ANOVA test followed by Tukey’s as post ANOVA for multiple comparison at P ≤.05. Data were presented

Assay [1] has as its system Panc-1 (pancreatic cancer cell line). Kind of assay: Antiproliferative assay (MTT), Panc-1. Type of assay: cell-based. As to conditions: Homo sapiens, read-out: Antiproliferative Activity IC50 ± SEM (µM) Panc-1. As to the method: The antiproliferative activity of pyrazoline hybrids 8–17 was tested against the four human cancer cell lines Panc-1 (pancreatic cancer cell line), MCF-7 (breast cancer cell line), HT-29 (colon cancer cell line), and A-549 (lung cancer cell line) using the MTT assay and doxorubicin as the reference drug. See Appendix SA (Supplementary File). […]
4.2.1.2. Assay for antiproliferative effect
To explore the antiproliferative potential of compounds propidium iodide fluorescence assay was performed using different cell lines such as Panc -1 (pancreas cancer cell line), MCF-7 (breast cancer cell line), HT-29 (colon cancer cell line) and A-549 (epithelial cancer cell line), respectively. To calculate the total nuclear DNA, a fluorescent dye (propidium iodide, PI) is used which can attach to the DNA, thus offering a quick and precise technique. PI cannot pass through the cell membrane and its signal intensity can be considered as directly proportional to quantity of cellular DNA. Cells whose cell membranes are damaged or have changed permeability are counted as dead ones. The assay was performed by seeding the cells of different cell lines at a density of 3000-7500 cells/well (in200μl medium) in culture plates followed by incubation for 24h at 37 °C in humidified 5%CO2/95% air atmospheric conditions. The medium was removed; the compounds were added to the plates at 10 μM concentrations (in 0.1% DMSO) in triplicates, followed by incubation for 48h. DMSO (0.1%) was used as control. After incubation, medium was removed followed by the addition of PI (25 μl, 50μg/mL in water/medium) to each well of the plates. At - 80 °C, the plates were allowed to freeze for 24 h, followed by thawing at 25 °C. A fluorometer (Polar-Star BMG Tech) was used to record the readings at excitation and emission wavelengths of 530 and 620 nm for each well. The percentage cytotoxicity of compounds was calculated using […]
Where ATC= Absorbance of treated cells and AC= Absorbance of control. Erlotinib was used as positive control in the assay. […]

Results on three compounds are retold here after paper PMC10218941, “Design, Synthesis, Antiproliferative Actions, and DFT Studies of New Bis–Pyrazoline Derivatives as Dual EGFR/BRAF^V600E Inhibitors” (International Journal of Molecular Sciences, 2023).

The term IC50 denotes the concentration that inhibits the measured activity by half. Regarding `COc1ccc(C2CC(c3ccc(NC(=O)COc4ccc(C5=NNC(c6ccc(OC)c(OC)c6)C5)cc4)cc3)=NN2)cc1` (centres unmarked) [Compound 17, 2-(4-(5-(3,4-Dimethoxyphenyl)-4,5-dihydro-1H-pyrazol-3-yl)phenoxy)-N-(4-(5-(4-methoxyphenyl)-4,5-dihydro-1H-pyrazol-3-yl)phenyl)acetamide], in the assay with caspase-8, the “Caspase-8 Conc” value was 1.77 ng/mL and the “Caspase-8 Fold Change” value came out at 20. Further, in the assay on Bcl-2, the “Bcl-2 Conc” value was found to be 1.15 ng/mL and the “Bcl-2 Fold Reduction” value was 4. In assay [1], the IC50 came to 1.3 ± 0.1 µM.

As for `COc1ccc(C2CC(c3ccc(OCC(=O)Nc4ccc(C5=NNC(c6ccc(OC)c(OC)c6)C5)cc4)cc3)=NN2)cc1` (centres unmarked) [Compound 12, 2-(4-(5-(4-Methoxyphenyl)-4,5-dihydro-1H-pyrazol-3-yl)phenoxy)-N-(4-(5-(3,4-dimethoxyphenyl)-4,5-dihydro-1H-pyrazol-3-yl)phenyl)acetamide], in the assay with caspase-8, the “Caspase-8 Conc” value was 1.87 ng/mL and the “Caspase-8 Fold Change” value is 21. Moreover, in the assay with Bcl-2, the “Bcl-2 Conc” value is 1.05 ng/mL and the “Bcl-2 Fold Reduction” value came to 5. Besides, the IC50 in assay [1] worked out at 1.1 ± 0.1 µM.

Regarding `CN[C@@H]1C[C@H]2O[C@@](C)([C@@H]1OC)n1c3ccccc3c3c4c(c5c6ccccc6n2c5c31)C(=O)NC4` [Staurosporine, reference compound], in the assay on caspase-8, the “Caspase-8 Conc” value is 1.80 ng/mL and the “Caspase-8 Fold Change” value is listed as 20. Also, in the assay with Bcl-2, the “Bcl-2 Conc” value is given as 1.10 ng/mL and the “Bcl-2 Fold Reduction” value is 5.
